What was measured:
rice (Oryza sativa) = assay: Test B flooded paddy test, visual rating 0-100 (0 no effect, 100 complete control); details: Flood, 250 g ai/ha, applied to paddy water, rated after 13 to 15 days
[1] = system: blackgrass (Alopecurus myosuroides); assay: Test A postemergence, visual injury rating 0-100; format: in vivo; details: 0 to 100 scale
[2] = system: pigweed (Amaranthus retroflexus); assay: Test A postemergence, visual injury rating 0-100; format: in vivo; details: 0 to 100 scale
[3] = system: foxtail, giant (giant foxtail, Setaria faberii); assay: Test A postemergence, visual injury rating 0-100; format: in vivo; details: 0 to 100 scale
[4] = system: galium (catchweed bedstraw, Galium aparine); assay: Test A postemergence, visual injury rating 0-100; format: in vivo; details: 0 to 100 scale
corn (Zea mays) = assay: Test A postemergence, visual injury rating 0-100; format: in vivo; details: 0 to 100 scale
kochia (Kochia scoparia) [5] = assay: Test A postemergence, visual injury rating 0-100; format: in vivo; details: 0 to 100 scale
[6] = system: ryegrass, Italian (Italian ryegrass, Lolium multiflorum); assay: Test A postemergence, visual injury rating 0-100; format: in vivo; details: 0 to 100 scale
[7] = system: barnyardgrass (Echinochloa crus-galli); assay: Test A postemergence, visual injury rating 0-100; format: in vivo; details: 0 to 100 scale
[8] = system: ragweed (common ragweed, Ambrosia elatior); assay: Test A postemergence, visual injury rating 0-100; format: in vivo; details: 0 to 100 scale
[9] = system: wheat (Triticum aestivum); assay: Test A postemergence, visual injury rating 0-100; format: in vivo; details: 0 to 100 scale
[10] = system: barnyardgrass (Echinochloa crus-galli); assay: Test B flooded paddy test, visual rating 0-100; details: Flood, 250 g ai/ha, applied to paddy water, rated after 13 to 15 days
[11] = system: pigweed (Amaranthus retroflexus); assay: Test A preemergence, visual injury rating 0-100; format: in vivo
[12] = system: foxtail, giant (giant foxtail, Setaria faberii); assay: Test A preemergence, visual injury rating 0-100; format: in vivo
kochia (Kochia scoparia) [13] = assay: Test A preemergence, visual injury rating 0-100; format: in vivo
[14] = system: ryegrass, Italian (Italian ryegrass, Lolium multiflorum); assay: Test A preemergence, visual injury rating 0-100; format: in vivo
[15] = system: ragweed (common ragweed, Ambrosia elatior); assay: Test A preemergence, visual injury rating 0-100; format: in vivo
[16] = system: ducksalad (Heteranthera limosa); assay: Test B flooded paddy test, visual rating 0-100; details: Flood, 250 g ai/ha, applied to paddy water, rated after 13 to 15 days
[17] = system: barnyardgrass (Echinochloa crus-galli); assay: Test A preemergence, visual injury rating 0-100 (0 no effect, 100 complete control); format: in vivo
[18] = 125 g ai/ha, 0 to 100 scale (0 no effect, 100 complete control), approx. 10 days

Compound | Rice plant response rating (0 to 100 scale) (rice (Oryza sativa)) | Blackgrass plant response rating ([1]; 125 g ai/ha) | Blackgrass plant response rating ([1]; 500 g ai/ha) | Pigweed plant response rating ([2]; 125 g ai/ha) | Pigweed plant response rating ([2]; 500 g ai/ha) | Foxtail, Giant plant response rating ([3]; 125 g ai/ha) | Foxtail, Giant plant response rating ([3]; 500 g ai/ha) | Galium plant response rating ([4]; 125 g ai/ha) | Galium plant response rating ([4]; 500 g ai/ha) | Corn plant response rating (corn (Zea mays); 125 g ai/ha) | Corn plant response rating (corn (Zea mays); 500 g ai/ha) | Kochia plant response rating (kochia (Kochia scoparia) [5]; 125 g ai/ha) | Kochia plant response rating (kochia (Kochia scoparia) [5]; 500 g ai/ha) | Ryegrass, Italian plant response rating ([6]; 125 g ai/ha) | Ryegrass, Italian plant response rating ([6]; 500 g ai/ha) | Barnyardgrass plant response rating ([7]; 125 g ai/ha) | Barnyardgrass plant response rating ([7]; 500 g ai/ha) | Ragweed plant response rating ([8]; 125 g ai/ha) | Ragweed plant response rating ([8]; 500 g ai/ha) | Wheat plant response rating ([9]; 125 g ai/ha) | further results
CC1=[N+]([O-])C(C(=O)Nc2cccc(F)c2F)C(c2cccc(Cl)c2C)C1 (racemic) [Compound 117] | 0 | 60 | 70 | 0 | 70 | 80 | 90 | 70 | 70 | 30 | 70 | 0 | 60 | 30 | 60 | 60 | 80 | 0 | 60 | 20 | Wheat plant response rating ([9]; 500 g ai/ha): 80; Barnyardgrass plant response rating (0 to 100 scale) [10]: 0; Pigweed plant response rating [11, 18]: 60; Pigweed plant response rating (0 to 100 scale) ([11]; 500 g ai/ha): 80; Foxtail, Giant plant response rating [12, 18]: 90; Foxtail, Giant plant response rating (0 to 100 scale) ([12]; 500 g ai/ha): 90; Kochia plant response rating (kochia (Kochia scoparia) [13]; [18]): 10; Kochia plant response rating (0 to 100 scale) (kochia (Kochia scoparia) [13]; 500 g ai/ha): 80; Ryegrass, Italian plant response rating [14, 18]: 60; Ryegrass, Italian plant response rating (0 to 100 scale) ([14]; 500 g ai/ha): 90; Ragweed plant response rating [15, 18]: 30; Ragweed plant response rating (0 to 100 scale) ([15]; 500 g ai/ha): 90; Ducksalad plant response rating (0 to 100 scale) [16]: 0; Barnyardgrass plant response rating [17, 18]: 90; Barnyardgrass plant response rating (0 to 100 scale) ([17]; 500 g ai/ha): 90
CC1=[N+]([O-])C(C(=O)Nc2cccc(F)c2F)C(c2ccc(C(F)(F)F)cn2)C1 (racemic) [Compound 88] | 15 | 10 | 30 | 0 | 0 | 0 | 10 | 20 | 50 | 0 | 0 | 0 | 30 | 0 | 0 | 0 | 50 | 0 | 10 | 0 | Wheat plant response rating ([9]; 500 g ai/ha): 0; Barnyardgrass plant response rating (0 to 100 scale) [10]: 15; Pigweed plant response rating (0 to 100 scale) ([11]; 125 g ai/ha): 0; Pigweed plant response rating (0 to 100 scale) ([11]; 500 g ai/ha): 60; Foxtail, Giant plant response rating (0 to 100 scale) ([12]; 125 g ai/ha): 20; Foxtail, Giant plant response rating (0 to 100 scale) ([12]; 500 g ai/ha): 90; Kochia plant response rating (0 to 100 scale) (kochia (Kochia scoparia) [13]; 125 g ai/ha): 10; Kochia plant response rating (0 to 100 scale) (kochia (Kochia scoparia) [13]; 500 g ai/ha): 70; Ryegrass, Italian plant response rating (0 to 100 scale) ([14]; 125 g ai/ha): 0; Ryegrass, Italian plant response rating (0 to 100 scale) ([14]; 500 g ai/ha): 0; Ragweed plant response rating (0 to 100 scale) ([15]; 125 g ai/ha): 0; Ragweed plant response rating (0 to 100 scale) ([15]; 500 g ai/ha): 80; Ducksalad plant response rating (0 to 100 scale) [16]: 100; Barnyardgrass plant response rating (0 to 100 scale) ([17]; 125 g ai/ha): 20; Barnyardgrass plant response rating (0 to 100 scale) ([17]; 500 g ai/ha): 90
CC1=[N+]([O-])C(C(=O)Nc2cccc(F)c2F)C(c2cc(F)cc(Oc3ccc(Cl)nc3)c2)C1 (racemic) [Compound 50] | 0 | 40 | 70 | 0 | 60 | 10 | 50 | 0 | 30 | 0 | 40 | 0 | 50 | 0 | 20 | 0 | 50 | 0 | 40 | 0 | Wheat plant response rating ([9]; 500 g ai/ha): 0; Barnyardgrass plant response rating (0 to 100 scale) [10]: 0; Pigweed plant response rating (0 to 100 scale) ([11]; 125 g ai/ha): 0; Pigweed plant response rating (0 to 100 scale) ([11]; 500 g ai/ha): 40; Foxtail, Giant plant response rating (0 to 100 scale) ([12]; 125 g ai/ha): 90; Foxtail, Giant plant response rating (0 to 100 scale) ([12]; 500 g ai/ha): 90; Kochia plant response rating (0 to 100 scale) (kochia (Kochia scoparia) [13]; 125 g ai/ha): 30; Kochia plant response rating (0 to 100 scale) (kochia (Kochia scoparia) [13]; 500 g ai/ha): 70; Ryegrass, Italian plant response rating (0 to 100 scale) ([14]; 125 g ai/ha): 0; Ryegrass, Italian plant response rating (0 to 100 scale) ([14]; 500 g ai/ha): 80; Ragweed plant response rating (0 to 100 scale) ([15]; 125 g ai/ha): 0; Ragweed plant response rating (0 to 100 scale) ([15]; 500 g ai/ha): 0; Ducksalad plant response rating (0 to 100 scale) [16]: 0; Barnyardgrass plant response rating (0 to 100 scale) ([17]; 125 g ai/ha): 50; Barnyardgrass plant response rating (0 to 100 scale) ([17]; 500 g ai/ha): 90
CC1=[N+]([O-])C(C(=O)Nc2cccc(F)c2F)C(c2ccccc2)C1 (stereo not shown) [Compound 97] | 0 | 30 | 70 | 0 | 0 | 60 | 90 | 30 | 50 | 0 | 0 | 0 | 50 | 0 | 50 | 70 | 90 | 0 | 20 | 10 | Wheat plant response rating ([9]; 500 g ai/ha): 30; Barnyardgrass plant response rating (0 to 100 scale) [10]: 70; Pigweed plant response rating (0 to 100 scale) ([11]; 125 g ai/ha): 0; Pigweed plant response rating (0 to 100 scale) ([11]; 500 g ai/ha): 60; Foxtail, Giant plant response rating (0 to 100 scale) ([12]; 125 g ai/ha): 90; Foxtail, Giant plant response rating (0 to 100 scale) ([12]; 500 g ai/ha): 90; Kochia plant response rating (0 to 100 scale) (kochia (Kochia scoparia) [13]; 125 g ai/ha): 50; Kochia plant response rating (0 to 100 scale) (kochia (Kochia scoparia) [13]; 500 g ai/ha): 60; Ryegrass, Italian plant response rating (0 to 100 scale) ([14]; 125 g ai/ha): 20; Ryegrass, Italian plant response rating (0 to 100 scale) ([14]; 500 g ai/ha): 90; Ragweed plant response rating (0 to 100 scale) ([15]; 125 g ai/ha): 40; Ragweed plant response rating (0 to 100 scale) ([15]; 500 g ai/ha): 90; Ducksalad plant response rating (0 to 100 scale) [16]: 100; Barnyardgrass plant response rating (0 to 100 scale) ([17]; 125 g ai/ha): 90; Barnyardgrass plant response rating (0 to 100 scale) ([17]; 500 g ai/ha): 100
CC1=[N+]([O-])[C@@H](C(=O)Nc2cccc(F)c2F)[C@H](c2ccc(Cl)cc2)C1 (relative stereo) [Compound 5, trans-3-(4-chlorophenyl)-N-(2,3-difluorophenyl)-3,4-dihydro-5-methyl-2H-pyrrole-2-carboxamide 1-oxide] | 0 | 20 | 50 | 40 | 70 | 60 | 70 | 50 | 80 | 0 | 50 | 60 | 70 | 0 | 30 | 90 | 90 | 30 | 70 | 20 | Wheat plant response rating ([9]; 500 g ai/ha): 80; Barnyardgrass plant response rating (0 to 100 scale) [10]: 65; Pigweed plant response rating (0 to 100 scale) ([11]; 125 g ai/ha): 50; Pigweed plant response rating ([11]; 500 g ai/ha, 0 to 100 scale): 90; Foxtail, Giant plant response rating (0 to 100 scale) ([12]; 125 g ai/ha): 100; Foxtail, Giant plant response rating ([12]; 500 g ai/ha, 0 to 100 scale): 100; Kochia plant response rating (0 to 100 scale) (kochia (Kochia scoparia) [13]; 125 g ai/ha): 10; Kochia plant response rating (kochia (Kochia scoparia) [13]; 500 g ai/ha, 0 to 100 scale): 60; Ryegrass, Italian plant response rating (0 to 100 scale) ([14]; 125 g ai/ha): 10; Ryegrass, Italian plant response rating ([14]; 500 g ai/ha, 0 to 100 scale): 80; Ragweed plant response rating (0 to 100 scale) ([15]; 125 g ai/ha): 50; Ragweed plant response rating ([15]; 500 g ai/ha, 0 to 100 scale): 90; Ducksalad plant response rating (0 to 100 scale) [16]: 100; Barnyardgrass plant response rating (0 to 100 scale) ([17]; 125 g ai/ha): 100; Barnyardgrass plant response rating ([17]; 500 g ai/ha, 0 to 100 scale): 100
